Patent US10294202B2, “Pyrrolidinones as herbicides” (FMC Corporation, priority 2013, dated 2019)

Experiments:
[1] = system: Russian thistle; assay: Test C pre-/postemergence herbicide test; type: in vivo, Salsola kali; conditions: Preemergence
Text: Seeds of plant species selected from blackgrass (Alopecurus myosuroides), ryegrass, Italian (Italian ryegrass, Lolium multiflorum), wheat (winter wheat, Triticum aestivum), galium (catchweed bedstraw, Galium aparine), corn (Zea mays), crabgrass, large (large crabgrass, Digitaria sanguinalis), foxtail, giant (giant foxtail, Setaria faberii), johnsongrass (Sorghum halepense), lambsquarters (Chenopodium album), morningglory (Ipomoea coccinea), nutsedge, yellow (yellow nutsedge, Cyperus esculentus), pigweed (Amaranthus retroflexus), ragweed (common ragweed, Ambrosia elatior), soybean (Glycine max), barnyardgrass (Echinochloa crus-galli), oilseed rape (Brassica napus), waterhemp (common waterhemp, Amaranthus rudis), kochia (Kochia scoparia), oat, wild (wild oat, Avena fatua), surinam grass (Brachiaria decumbens), foxtail, green (green foxtail, Setaria viridis), goosegrass (Eleusine indica), bromegrass, downy (downy bromegrass, Bromus tectorum), nightshade (eastern black nightshade, Solanum ptycanthum), cocklebur (common cocklebur, Xanthium strumarium), cupgrass, woolly (woolly cupgrass, Eriochloa villosa), bermudagrass (Cynodon dactylon), sunflower, (common oilseed sunflower, Helianthus annuus), Russian thistle (Salsola kali) and velvetleaf (Abutilon theophrasti) were planted into a blend of loam soil and sand and treated preemergence with test chemicals formulated in a non-phytotoxic solvent mixture which included a surfactant. At the same time, plants selected from these crop and weed species and also barley (winter barley, Hordeum vulgare), […]), chickweed (common chickweed, Stellaria media), deadnettle (henbit deadnettle, Lamium amplexicaule), and canarygrass (littleseed canarygrass, Phalaris minor) were planted in pots containing Redi-Earth® planting medium (Scotts Company, 14111 Scottslawn Road, Marysville, Ohio 43041) comprising spaghnum peat moss, vermiculite, wetting agent and starter nutrients and treated with postemergence applications of test chemicals formulated in the same manner. Plants ranged in height from 2 to 18 cm (1- to 4-leaf stage) for postemergence treatments. Treated plants and controls were maintained in a greenhouse for 13 to 15 days, after which time all species were compared to controls and visually evaluated. Plant response ratings, summarized in Table C, are based on a scale of 0 to 100 where 0 is no effect and 100 is complete control. A dash (-) response means no test result.

[2] = system: smartweed; assay: Test E preemergence herbicide test; type: in vivo, Polygonum Persicaria
Text: Seeds of plant species selected from corn (Zea mays), soybean (Glycine max), velvetleaf (Abutilon theophrasti), lambsquarters (Chenopodium album), wild poinsettia (Euphorbia heterophylla), pigweed, palmer (palmer pigweed, Amaranthus palmeri), waterhemp (common waterhemp, Amaranthus rudis), surinam grass (Brachiaria decumbens), crabgrass, large (large crabgrass, Digitaria sanguinalis), crabgrass, Brazil (Brazilian crabgrass, Digitaria horizontalis), panicum, fall (fall panicum, Panicum dichotomiflorum), foxtail, giant (giant foxtail, Setaria faberii), foxtail, green (green foxtail, Setaria viridis), goosegrass (Eleusine indica), johnsongrass (Sorghum halepense), ragweed (common ragweed, Ambrosia elatior), barnyardgrass (Echinochloa crus-galli), sandbur (southern sandbur, Cenchrus echinatus), arrowleaf […] rhombifolia), ryegrass, Italian (Italian ryegrass, Lolium multiflorum), dayflower, VA (Virginia dayflower, Commelina virginica), field bindweed (Convolvulus arvensis), morningglory (Ipomoea coccinea), nightshade (eastern black nightshade, Solanum ptycanthum), kochia (Kochia scoparia), nutsedge, yellow (yellow nutsedge, Cyperus esculentus), cocklebur (common cocklebur, Xanthium strumarium), smartweed (ladysthumb smartweed, Polygonum Persicaria) and beggarticks (hairy beggarticks, Bidens pilosa), were planted into a silt loam soil and treated preemergence with test chemicals formulated in a non-phytotoxic solvent mixture which included a surfactant. Treated plants and controls were maintained in a greenhouse for 21 days, after which time all species were compared to controls and visually evaluated. Plant response ratings, summarized in Table E, are based on a scale of 0 to 100 where 0 is no effect and 100 is complete control. A dash (-) response means no test result.

[3] = system: sedge, umbrella; assay: Test F flood (paddy) test; type: in vivo, Cyperus difformis; conditions: 21 d, scale 0-100
Text: (§1) Three plastic pots (ca. 16-cm diameter) per rate were partially filled with sterilized Tama silt loam soil comprising a 35:50:15 ratio of sand, silt and clay and 2.6% organic matter. Separate plantings for each of the three pots were as follows. Seeds from the U.S. of monochoria (Monochoria vaginalis), sedge, umbrella (small-flower umbrella sedge, Cyperus difformis), bulrush, […] bulrush, Scirpus juncoides), and […] (purple […] coccinea), were planted into one 16-cm pot for each rate. Seeds from the U.S. of flatsedge, rice (rice flatsedge, Cyperus iria), sprangletop, Brdd. (bearded sprangletop, Leptochloa fascicularis), one stand of 9 or 10 water seeded rice seedlings (Rice, W.S. Jap, Oryza sativa cv. 'Japonica-[…]' or Rice, W.S. Ind, 'Indica'), and two stands of 3 or 4 seedlings of rice, transplanted (transplanted rice, Oryza sativa cv. 'Japonica-[…]') were planted into one 16-cm pot for each rate. Seeds from the U.S. of barnyardgrass (Echinochloa crus-galli), […] (common […], Alisma plantago-aquatica), and watergrass, late (late watergrass, Echinochloa oryzicola) were planted into one 16-cm pot for each rate. Plantings were sequential so that crop and weed species were at the 2.0 to 2.5-leaf stage at time of treatment. Potted plants were grown in a greenhouse with day/night temperature settings of 30/27° C., and supplemental balanced lighting was provided to maintain a 16-h photoperiod. Test pots were maintained in the greenhouse until test completion. At time of treatment, test pots were flooded to 3 cm above the soil surface, treated by application of test compounds directly to the paddy water, and then maintained at that water depth for the duration of the test. Effects of treatments on rice and weeds were visually evaluated by comparison to untreated controls after 21 d. Plant response ratings, summarized in Table F, are based on a scale of 0 to 100 where 0 is no effect and 100 is complete control. A dash (-) response means no test result.

[4] = system: bulrush, hardstem; assay: Test F flood (paddy) test; type: in vivo, Scirpus juncoides; conditions: 21 d, scale 0-100
Text: as §1

[5] = 125 g ai/ha, scale 0 to 100 (0 no effect, 100 complete control)

Row | Compound | Plant response rating, Russian Thistle ([1]; 62 g ai/ha, scale 0 to 100) | Plant response rating, Russian Thistle [1, 5] | Plant response rating, Sedge, Umbrella ([3]; 125 g ai/ha) | Plant response rating, Sedge, Umbrella ([3]; 250 g ai/ha) | Plant response rating, Sedge, Umbrella ([3]; 500 g ai/ha) | Plant response rating, Sedge, Umbrella ([3]; 1000 g ai/ha) | Plant response rating, Sedge, Umbrella ([3]; 2000 g ai/ha) | Plant response rating, Bulrush, Hardstem ([4]; 125 g ai/ha) | Plant response rating, Bulrush, Hardstem ([4]; 250 g ai/ha) | Plant response rating, Bulrush, Hardstem ([4]; 500 g ai/ha) | also measured
1 | O=C1NCC(c2ccc(Cl)c(Cl)c2)C1C(=O)Nc1ccccc1F (racemic) [Compound 14] | 0 | 0 | – | – | – | – | – | – | – | – | Plant response rating, Smartweed ([2]; 125 g ai/ha): 0
2 | O=C1NCCC1C(=O)N(c1ccc(F)c(F)c1)c1ccccc1F (stereo not drawn) [Compound 5, N-(3,4-difluorophenyl)-N-(2-fluorophenyl)-2-oxo-3-pyrrolidinecarboxamide] | 0 | – | 0 | 0 | 0 | 0 | 0 | – | – | – | –
3 | O=C1NCC(c2ccc(F)c(F)c2)C1C(=O)Nc1cccc(F)c1F (stereo not drawn) [Compound 17, N-(2,3-difluorophenyl)-4-(3,4-difluorophenyl)-2-oxo-3-pyrrolidinecarboxamide] | – | – | 0 | 0 | 0 | 0 | 20 | 0 | 0 | 0 | Plant response rating, Bulrush, Hardstem ([4]; 1000 g ai/ha): 0; Plant response rating, Bulrush, Hardstem ([4]; 2000 g ai/ha): 40
4 | O=C1NCC(c2ccc(F)c(Cl)c2)C1C(=O)Nc1ccccc1F (stereo not drawn) [Compound 60] | 50 | 60 | – | – | – | – | – | – | – | – | –
5 | O=C1NCC(c2ccc(C(F)(F)F)cc2)C1C(=O)Nc1cccc(F)c1F (stereo not drawn) [Compound 80, N-(2,3-difluorophenyl)-2-oxo-4-[4-(trifluoromethyl)phenyl]-3-pyrrolidinecarboxamide] | – | – | – | – | – | – | – | – | – | – | Plant response rating, Smartweed ([2]; 16 g ai/ha): 0; Plant response rating, Smartweed ([2]; 31 g ai/ha): 0; Plant response rating, Smartweed ([2]; 62 g ai/ha): 20; Plant response rating, Smartweed ([2]; 250 g ai/ha): 40
6 | CN1CC(c2ccc(F)c(F)c2)C(C(=O)Nc2cccc(F)c2F)C1=O (stereo not drawn) [Compound 303] | – | – | 0 | 0 | 0 | – | – | 0 | 70 | 80 | Plant response rating, Sedge, Umbrella ([3]; 62 g ai/ha): 0; Plant response rating, Bulrush, Hardstem ([4]; 62 g ai/ha): 0
